Reference: patent US20240173344A1, “USE OF GABAA RECEPTOR AS TARGET IN PREPARATION OR SCREENING OF DRUG FOR LOWERING BLOOD LIPID LEVEL, TREATING OBESITY, AND/OR IMPROVING METABOLISM” (SHANGHAI INSTITUTE OF ENDOCRINE AND METABOLIC DISEASES, priority 2022, published 2024)
Values joined by “and” are separate entries in the source; they are usually repeats but may differ in a detail not shown here. Equal values may be shown once.

Assays:
obese mouse model = experiment: Intraperitoneal puerarin derivatives in obese mouse model: body weight, blood lipid, jejunal TG; type: in vivo, mice; settings: for Blood lipid level / Jejunal TG level: individual obese mice; for Effect on TG (lipid) absorption in small intestine / Effect on blood lipid level / Effect on body weight of the obese mouse: intraperitoneal injection, result in words; for Body weight change percentage, Mean: puerarin derivative-1; for Body weight change percentage: intraperitoneal puerarin derivative-1
Text: (§1) In the present disclosure, the mice were fed with a high-fat diet in which a mass percentage of fat was 60% for 12 weeks, and when a body weight reached 35 g or more, animal models of alimentary obesity were successfully constructed. At a formal stage of the experiment (starting on day 0 in FIG. 1A, FIG. 3A, FIG. 6A, and FIG. 7A), the mice were raised in single cages, during which a daily food intake of each mouse model was accurately recorded, the feces was collected before and after drug intervention, and a daily body weight curve was recorded.
A method for determining TG in a sample was as follows: 20 mg to 30 mg of a sample was first weighed, a 5% NP40-containing lysis buffer was added, and a resulting mixture was homogenated and incubated in a metal bath at 95° C. for 5 min, which was repeated twice. A resulting homogenate was cooled to room temperature and then centrifuged at 15,000 rpm for 2 min to 3 min, and a resulting supernatant was pipetted for determination. A Biovision kit was used to determine TG. 2 μl of the supernatant was added to each well, and after a chromogenic reaction was completed, a value of each well was determined by a microplate reader. TG in the small intestinal tissue was quantified through a standard protein concentration; and a total amount of lipids excreted with the feces was calculated based on a measured value of the feces sample and a total mass of the sample at 24 h.

neurons in the DMV = experiment: Chemogenetic (DREADDs) inhibition of DMV neurons by CNO in obese mice: body weight, blood lipid, fecal TG, jejunal TG; type: in vivo, C57BL/6J mice; settings: single mice and mean; for Blood lipid level: Inhibition group (hM4D(Gi) virus + CNO i.p. 7 d)
Text: as §1
The chemogenetic approach designer receptors exclusively activated by designer drugs (DREADDs) is a research method that controls neuronal excitability in a specific brain region in an animal model, where a downstream signaling pathway of a specific exogenous ligand clozapine N-oxide (CNO) is activated through an adeno-associated virus (AAV) modified by a G protein-coupled receptor (GPCR) to cause a change in neuronal excitability. […]
Four weeks after recovery from surgery, mice in the chemogenetic inhibition group and the control group each were intraperitoneally injected with CNO (Catalog No. BML-NS105, Enzo Life Sciences, USA) at a dose of 1.0 mg/kg BW every day to inhibit the neuronal activity of the DMV, and the daily food intake and body weight were measured and the feces was collected for the mice. The mice were sacrificed after being continuously injected with CNO for 7 d to inhibit the DMV, mouse tissue samples were collected, and physiological and metabolic indexes were detected and analyzed.
A method for determining TG in a sample was as follows: 20 mg to 30 mg of a sample was first weighed, a 5% NP40-containing lysis buffer was added, and a resulting mixture was homogenated and incubated in a metal bath at 95° C. for 5 min, which was repeated twice. […] 2 μl of the supernatant was added to each well, and after a chromogenic reaction was completed, a value of each well was determined by a microplate reader. […]

[1] = group mean of 8 mice, puerarin derivative-3 group
[2] = group mean of 10 mice, puerarin derivative-2 group

OCC1OC2c3c(ccc4c3OC=C(c3ccc(O)cc3)C4O)OC2C(O)C1O (centres unmarked) [puerarin derivative-3]
Body weight change curve, Mean (obese mouse model; Day 0, group mean of 8 mice, puerarin derivative-3): 0.00%
Body weight change curve (obese mouse model; Day 0, individual obese mice, puerarin derivative-3): 0.00%
Body weight change curve, Mean (obese mouse model; Day 1, group mean of 8 mice, puerarin derivative-3): −2.37%
Body weight change curve (obese mouse model; Day 1, individual obese mice, puerarin derivative-3): −3.96% and −2.50% and −1.71% and −2.35% and −2.28% and −0.26% and −2.59% and −3.32%
Body weight change curve, Mean (obese mouse model; Day 2, group mean of 8 mice, puerarin derivative-3): −3.16%
Body weight change curve (obese mouse model; Day 2, individual obese mice, puerarin derivative-3): −5.57% and −1.65% and −3.77% and −2.65% and −4.06% and −0.80% and −2.88% and −3.90%
Body weight change curve, Mean (obese mouse model; Day 3, group mean of 8 mice, puerarin derivative-3): −3.01%
Body weight change curve (obese mouse model; Day 3, individual obese mice, puerarin derivative-3): −1.49% and −2.50% and −4.68% and −2.65% and −4.36% and −1.34% and −2.88% and −4.19%
Body weight change curve, Mean (obese mouse model; Day 4, group mean of 8 mice, puerarin derivative-3): −3.76%
Body weight change curve (obese mouse model; Day 4, individual obese mice, puerarin derivative-3): −2.09% and −3.65% and −6.24% and −2.65% and −3.76% and −1.07% and −4.39% and −6.27%
Body weight change curve, Mean (obese mouse model; Day 5, group mean of 8 mice, puerarin derivative-3): −4.10%
Body weight change curve (obese mouse model; Day 5, individual obese mice, puerarin derivative-3): −3.02% and −3.65% and −6.24% and −2.65% and −4.06% and −1.88% and −5.00% and −6.27%
Body weight change curve, Mean (obese mouse model; Day 6, group mean of 8 mice, puerarin derivative-3): −4.33%
Body weight change curve (obese mouse model; Day 6, individual obese mice, puerarin derivative-3): −3.33% and −5.13% and −6.24% and −2.65% and −3.46% and −4.41% and −2.88% and −6.57%
Body weight change curve, Mean (obese mouse model; Day 7, group mean of 8 mice, puerarin derivative-3): −5.42%
Body weight change curve (obese mouse model; Day 7, individual obese mice, puerarin derivative-3): −5.24% and −6.65% and −7.51% and −3.26% and −3.76% and −4.13% and −5.93% and −6.88%
Blood lipid level, Mean (obese mouse model; [1]): 1.2750 mM
Jejunal TG level, Mean (obese mouse model; [1]): 1.2900 μmol/mg/protein
Blood lipid level (obese mouse model; puerarin derivative-3 group): 1.62 mM and 1.06 mM (2×) and 1.69 mM and 1.23 mM and 1.07 mM and 1.29 mM and 1.18 mM
Jejunal TG level (obese mouse model; puerarin derivative-3 group): 1.29 μmol/mg/protein and 1.48 μmol/mg/protein (2×) and 1.36 μmol/mg/protein and 1.27 μmol/mg/protein and 1.53 μmol/mg/protein and 1.06 μmol/mg/protein and 0.85 μmol/mg/protein
Effect on TG (lipid) absorption in small intestine (obese mouse model): inhibiting the small intestinal lipid absorption
Effect on blood lipid level (obese mouse model): reducing blood lipid
Effect on body weight of the obese mouse (obese mouse model): reducing blood lipid and body weight

Cc1ccc(-c2coc3c(C4OC(CO)C(O)C(O)C4O)c(O)ccc3c2=O)cc1 (centres unmarked) [puerarin derivative-2]
Body weight change curve, Mean (obese mouse model; Day 0, group mean of 10 mice, puerarin derivative-2): 0.00%
Body weight change curve (obese mouse model; Day 0, individual obese mice, puerarin derivative-2): 0.00%
Body weight change curve, Mean (obese mouse model; Day 1, group mean of 10 mice, puerarin derivative-2): −1.67%
Body weight change curve (obese mouse model; Day 1, individual obese mice, puerarin derivative-2): −2.39% and −0.56% and −1.13% and −2.22% and 0.90% and −2.19% and −0.28% and −2.70% and −2.55% and −3.57%
Body weight change curve, Mean (obese mouse model; Day 2, group mean of 10 mice, puerarin derivative-2): −2.33%
Body weight change curve (obese mouse model; Day 2, individual obese mice, puerarin derivative-2): −2.74% and −2.26% and −1.99% and −4.21% and 0.60% and −2.75% and −0.84% and −2.15% and −2.88% and −4.10%
Body weight change curve, Mean (obese mouse model; Day 3, group mean of 10 mice, puerarin derivative-2): −2.88%
Body weight change curve (obese mouse model; Day 3, individual obese mice, puerarin derivative-2): −2.74% and −3.43% and −3.16% and −4.55% and 0.00% and −2.75% and −1.41% and −3.55% and −2.88% and −4.37%
Body weight change curve, Mean (obese mouse model; Day 4, group mean of 10 mice, puerarin derivative-2): −3.46%
Body weight change curve (obese mouse model; Day 4, individual obese mice, puerarin derivative-2): −2.74% and −3.73% and −3.16% and −3.87% and −0.91% and −3.89% and −1.13% and −4.40% and −4.21% and −6.57%
Body weight change curve, Mean (obese mouse model; Day 5, group mean of 10 mice, puerarin derivative-2): −3.68%
Body weight change curve (obese mouse model; Day 5, individual obese mice, puerarin derivative-2): −2.74% and −4.03% and −3.76% and −4.21% and −0.61% and −3.89% and −1.99% and −4.11% and −4.89% and −6.57%
Body weight change curve, Mean (obese mouse model; Day 6, group mean of 10 mice, puerarin derivative-2): −3.68%
Body weight change curve (obese mouse model; Day 6, individual obese mice, puerarin derivative-2): −2.74% and −4.03% and −3.16% and −3.54% and −0.91% and −4.47% and −4.67% and −3.55% and −2.88% and −6.85%
Body weight change curve, Mean (obese mouse model; Day 7, group mean of 10 mice, puerarin derivative-2): −3.98%
Body weight change curve (obese mouse model; Day 7, individual obese mice, puerarin derivative-2): −3.45% and −2.26% and −2.57% and −3.87% and −2.15% and −5.66% and −4.37% and −2.43% and −5.93% and −7.13%
Blood lipid level, Mean (obese mouse model; [2]): 1.0006 mM
Jejunal TG level, Mean (obese mouse model; [2]): 1.3072 μmol/mg/protein
Blood lipid level (obese mouse model; puerarin derivative-2 group): 1.0874 mM and 1.0496 mM and 0.6903 mM and 0.8792 mM and 0.6729 mM and 1.3428 mM and 0.9551 mM and 1.1631 mM and 1.1347 mM and 1.0307 mM
Jejunal TG level (obese mouse model; puerarin derivative-2 group): 1.7043 μmol/mg/protein and 1.5325 μmol/mg/protein and 1.5551 μmol/mg/protein and 1.3572 μmol/mg/protein and 1.1252 μmol/mg/protein and 1.1433 μmol/mg/protein and 1.3121 μmol/mg/protein and 1.0924 μmol/mg/protein and 1.2506 μmol/mg/protein and 0.9988 μmol/mg/protein
Effect on TG (lipid) absorption in small intestine (obese mouse model): inhibiting the small intestinal lipid absorption
Effect on blood lipid level (obese mouse model): reducing blood lipid
Effect on body weight of the obese mouse (obese mouse model): reducing blood lipid and body weight

OCC1OC(c2c(O)ccc3c2OC=C(c2ccc(O)cc2)C3O)C(O)C(O)C1O (centres unmarked) [Derivative-1]
Body weight change percentage, Mean (obese mouse model; Day 0, group mean of 10 mice): 0.00%
Body weight change percentage (obese mouse model; Day 0, individual obese mice): 0.00%
Body weight change percentage, Mean (obese mouse model; Day 1, group mean of 10 mice): −1.88%
Body weight change percentage (obese mouse model; Day 1, individual obese mice): −0.25% and −2.34% and −2.27% and −3.30% and −2.93% and 0.00% and −2.45% and 0.28% and −2.89% and −2.63%
Body weight change percentage, Mean (obese mouse model; Day 2, group mean of 10 mice): −2.10%
Body weight change percentage (obese mouse model; Day 2, individual obese mice): −0.74% and −1.86% and −2.56% and −3.79% and −4.32% and −0.26% and −2.20% and 0.00% and −2.62% and −2.63%
Body weight change percentage, Mean (obese mouse model; Day 3, group mean of 10 mice): −2.96%
Body weight change percentage (obese mouse model; Day 3, individual obese mice): −1.24% and −3.06% and −2.56% and −4.04% and −4.32% and −1.55% and −2.45% and −1.14% and −4.53% and −4.77%
Body weight change percentage, Mean (obese mouse model; Day 4, group mean of 10 mice): −3.71%
Body weight change percentage (obese mouse model; Day 4, individual obese mice): −0.99% and −3.79% and −3.73% and −6.05% and −4.88% and −3.15% and −3.46% and −2.30% and −4.26% and −4.46%
Body weight change percentage, Mean (obese mouse model; Day 5, group mean of 10 mice): −3.61%
Body weight change percentage (obese mouse model; Day 5, individual obese mice): −1.74% and −3.55% and −4.33% and −6.05% and −3.48% and −2.08% and −2.95% and −3.79% and −3.70% and −4.46%
Body weight change percentage, Mean (obese mouse model; Day 6, group mean of 10 mice): −3.95%
Body weight change percentage (obese mouse model; Day 6, individual obese mice): −4.08% and −3.06% and −2.56% and −6.31% and −5.17% and −2.35% and −3.21% and −2.60% and −5.09% and −5.08%
Body weight change percentage, Mean (obese mouse model; Day 7, group mean of 10 mice): −4.08%
Body weight change percentage (obese mouse model; Day 7, individual obese mice): −3.81% and −2.10% and −5.25% and −6.56% and −6.62% and −2.35% and −2.20% and −3.79% and −4.26% and −3.84%
Effect on TG (lipid) absorption in small intestine (obese mouse model): inhibit the TG absorption in small intestine
Effect on blood lipid level (obese mouse model): effectively reduce blood lipid level
Effect on body weight of the obese mouse (obese mouse model): significantly reduce the body weight

C[N+]1([O-])CCN(C2=Nc3cc(Cl)ccc3Nc3ccccc32)CC1 [CNO, clozapine N-oxide]
Blood lipid level (neurons in the DMV): 0.7414 mM and 0.9111 mM and 0.6521 mM and 0.4645 mM and 0.8754 mM and 0.6342 mM and 0.7146 mM
Blood lipid level (neurons in the DMV; mean): 0.7169 mM
Body weight curve change percentage (neurons in the DMV; Inhibition group (hM4D(Gi) virus in DMV, CNO 1.0 mg/kg BW i.p. daily), Day 0 baseline): 0.00%
